From ChEMBL document CHEMBL4402556, “Mycobacterium tuberculosis Decaprenylphosphoryl-β-d-ribose Oxidase Inhibitors: Expeditious Reconstruction of Suboptimal Hits into a Series with Potent in Vivo Activity” (J Med Chem, 2020)
Values after ≈ are worked out from the molar mass of the structure shown.

Columns and labels:
[1] = Kinetic aqueous solubility of the compound in phosphate buffer saline at pH 7.4 after 1 hr by CLND method; type: physicochemical; conditions: phosphate buffered saline, read-out: Kinetic_solubility
[2] = system: Mycobacterium tuberculosis; test: Antitubercular activity against wild type Mycobacterium tuberculosis H37Rv ATCC 25618 assessed as bacterial growth inhibition measured after 6 days by resazurin assay; type: functional; conditions: H37Rv ATCC 25618, 144 h
[3] = Inhibition of Mycobacterium tuberculosis DprE1 expressed in Escherichia coli BL21 (DE3) using farnesylphosphoryl-beta-D-ribose as substrate
[4] = system: Mycobacterium tuberculosis; test: Antibacterial activity against Mycobacterium tuberculosis transfected with pMV261 vector expressing DprE1 assessed as bacterial growth inhibition; type: functional
[5] = system: Mycobacterium tuberculosis; test: Antitubercular activity against Mycobacterium tuberculosis H37Rv infected in po dosed C57BL/6 mouse model of acute infection assessed as effect on mycobacterial burden in lung pretreated with CYP inhibitor ABT 2 hrs prior followed by compound administration for 8 consecutive days starting from day 1 post-infection and measured after 24 hrs post-last dose; type: functional
HepG2 = test: Cytotoxicity against human HepG2 cells assessed as reduction in cell viability measured after 48 hrs by CellTiter-Glo assay; type: cell-based; conditions: HepG2, 48 h
[6] = system: Mycobacterium tuberculosis; test: Antitubercular activity against wild type Mycobacterium tuberculosis H37Rv ATCC 25618 transfected with pATB45luc plasmid expressing luciferase infected in human THP1 cells assessed as reduction in bacterial growth after 4 days by BrightGlo luciferase assay; type: functional; conditions: H37Rv ATCC 25618, 96 h
[7] = system: Mycobacterium tuberculosis; test: (§1) Antitubercular activity against Mycobacterium tuberculosis H37Rv infected in po dosed C57BL/6 mouse model of acute infection assessed as reduction in mycobacterial burden in lung administration for 8 consecutive days starting from day 1 post-infection and measured after 24 hrs post-last dose; type: functional
Escherichia coli = test: Antibacterial activity against Escherichia coli assessed as bacterial growth inhibition; type: functional
Staphylococcus aureus = test: Antibacterial activity against Staphylococcus aureus assessed as bacterial growth inhibition; type: functional
[8] = Half life in CD-1 mouse at 1 mg/kg, iv administered as single dose measured up to 24 hrs by LC-MS/MS analysis; type: ADME, organism-based; conditions: in vivo
[9] = Volume of distribution at steady state in CD-1 mouse at 1 mg/kg, iv administered as single dose measured up to 24 hrs by LC-MS/MS analysis; type: ADME, organism-based; conditions: in vivo, read-out: Vdss
[10] = Oral bioavailability in CD-1 mouse at 5 mg/kg administered as single dose measured up to 24 hrs by LC-MS/MS analysis; type: ADME, organism-based; conditions: in vivo
[11] = Solubility of the compound in FaSSIF; type: physicochemical
[12] = Clearance in CD-1 mouse at 1 mg/kg, iv administered as single dose measured up to 24 hrs by LC-MS/MS analysis; type: ADME, organism-based; conditions: in vivo
[13] = system: Mycobacterium tuberculosis; test: as §1, with “in” for “in po dosed”, “at 100 mg/kg, po treated” for “administration”, “dose (reference value: 5.8 log10cfu)” for “dose”; type: functional

| Compound | MIC90 [2] [µM] | pIC50 [3] | other results |
| --- | --- | --- | --- |
| CC1CCN(C(=O)C2CCN(c3nnc(-n4cccc4)s3)CC2)CC1 | 20.8 (≈ 7.48 µg/mL) | 6.3 | solubility kinetic at 1 h [1]: 328 µM (≈ 118 µg/mL) |
| O=C(C1CCN(c2nnc(-n3cccc3)s2)CC1)N1CCC(Cc2ccccc2)CC1 | 4 (≈ 1.74 µg/mL) | 7.3 | solubility kinetic at 1 h [1]: < 1 µM |
| COc1ncnc(Cn2cc(C(=O)NCCF)c3ncccc32)c1C | 4 (≈ 1.37 µg/mL) | 7.4 | solubility kinetic at 1 h [1]: 26 µM (≈ 8.93 µg/mL); MIC90 [4]: > 125 µM; ED99 [5]: 11 mg/kg; IC50 (HepG2): > 100 µM; MIC90 [6]: 0.62 µM (≈ 0.213 µg/mL); ED99 [7]: 164 mg/kg |
| CCN(CC)CCC1CCN(C(=O)C2CCN(c3cc(N4CCOCC4)ncn3)CC2)CC1 | > 125 | < 4 | – |
| CC(C)C1CCN(C(=O)C2CCN(c3cccc(N4CCOCC4)n3)CC2)CC1 | > 125 | 5 | – |
| O=C(C1CCN(c2cc(N3CCOCC3)ncn2)CC1)N1CCC(Cc2ccccc2)CC1 | 0.6 (≈ 0.27 µg/mL) | 7.6 | solubility kinetic at 1 h [1]: 280 µM (≈ 126 µg/mL); MIC90 [4]: > 16 µM; MIC90 [6]: 0.07 µM (≈ 0.0315 µg/mL); MIC (Escherichia coli): > 128 µg/mL; MIC (Staphylococcus aureus): > 128 µg/mL |
| CC1CCN(C(=O)C2CCN(c3cc(N4CCCC4)ncn3)CC2)CC1 | 23.4 (≈ 8.37 µg/mL) | 5.9 | – |
| CC(C)C1CCN(C(=O)C2CCN(c3cc(N4CCOCC4)ncn3)CC2)CC1 | 4 (≈ 1.61 µg/mL) | 7.1 | – |
| O=C(C1CCN(c2ccncn2)CC1)N1CCC(Cc2ccccc2)CC1 | > 125 | 4.8 | – |
| CC1CCN(C(=O)C2CCN(c3cc(N(C)C)ncn3)CC2)CC1 | 125 (≈ 41.4 µg/mL) | 5 | – |
| c1nc(N2CCCCC2)cc(N2CCOCC2)n1 | – | 4.1 | – |
| O=C(C1CCN(c2cc(N3CCOCC3)ncn2)CC1)N1CCC(CCN2CCCC2)CC1 | > 125 | 4.1 | – |
| O=C(C1CCN(c2cc(N3CCOCC3)ncn2)CC1)N1CCC(Cc2ccccc2)C1 (configuration not stated) | 4 (≈ 1.74 µg/mL) | 6.9 | – |
| CC(C)C1CCN(C(=O)C2CCN(c3cc(N4CCOCC4)ccn3)CC2)CC1 | > 125 | 5.2 | – |
| CN1CCN(c2cc(N3CCC(C(=O)N4CCC(Cc5ccccc5)CC4)CC3)ncn2)CC1 | 125 (≈ 57.8 µg/mL) | 4.7 | – |
| O=C(C1CCN(c2cc(N3CCOCC3)ncn2)CC1)N1CCC(Oc2ccc(Cl)cc2)CC1 | 1.5 (≈ 0.729 µg/mL) | 7.5 | – |
| CC(C)C1CCN(C(=O)C2CCN(c3ccnc(N4CCOCC4)c3)CC2)CC1 | > 125 | 5.1 | – |
| CC(=O)N1CCC(C(=O)N2CCC(C)CC2)CC1 | – | < 3 | – |
| O=C(C1CCN(c2cc(N3CCOCC3)ncn2)CC1)N1CCC(O)(Cc2ccccc2)CC1 | 10 (≈ 4.66 µg/mL) | 5.8 | – |

| Compound | MIC90 [2] [µM] | pIC50 [3] | other results |
| --- | --- | --- | --- |
| O=C(C1CCN(c2cc(N3CCOCC3)ncn2)CC1)N1CCCC(Cc2ccccc2)C1 (configuration not stated) | 32 (≈ 14.4 µg/mL) | 6.2 | – |
| O=C(C1CCN(c2cc(N3CCOCC3)ncn2)CC1)N1CCC(Nc2ccccc2)CC1 | 10 (≈ 4.51 µg/mL) | 6.4 | – |
| CC(=O)N1CCC(C(=O)N2CCC(Cc3ccccc3)CC2)CC1 | – | < 4 | – |
| O=c1nc(N2CCOCC2)cc(N2CCCCC2)[nH]1 | – | 4.5 | – |
| O=C(C1CCN(c2cc(N3CCCCC3)ncn2)CC1)N1CCC(Cc2ccccc2)CC1 | 2.5 (≈ 1.12 µg/mL) | 7.1 | solubility kinetic at 1 h [1]: 28 µM (≈ 12.5 µg/mL) |
| CC(=O)N1CCN(c2cc(N3CCOCC3)ncn2)CC1 | – | < 4 | – |
| O=C(C1CCN(c2cc(N3CCOCC3)ncn2)CC1)N1CCC(Oc2ccc(Cl)cc2F)CC1 | 0.5 (≈ 0.252 µg/mL) | 7.7 | – |
| O=C(C1CCN(c2cc(N3CCOCC3)ncn2)CC1)N1CCN(c2ccc(F)cc2)CC1 | 20 (≈ 9.09 µg/mL) | 6.2 | – |
| CC1CCN(C(=O)C2CCN(c3cc(N4CCCCC4)ncn3)CC2)CC1 | 15.6 (≈ 5.8 µg/mL) | 6.5 | solubility kinetic at 1 h [1]: > 488 µM |
| O=C(C1CCN(c2cc(N3CCOCC3)ncn2)CC1)N1CCc2ccccc2C1 | 10 (≈ 4.08 µg/mL) | 6.5 | – |
| FC1(F)CCN(c2cc(N3CCOCC3)ncn2)C1 | – | 4.1 | – |
| O=C(C1CCN(c2ncnc(N3CCOCC3)c2F)CC1)N1CCC(Cc2ccccc2)CC1 | 1.3 (≈ 0.608 µg/mL) | 7.2 | – |
| O=C(C1CCN(c2cc(N3CCOCC3)[nH]c(=O)n2)CC1)N1CCC(Cc2ccccc2)CC1 | 3 (≈ 1.4 µg/mL) | 7.4 | – |
| O=C(C1CCN(c2cc(N3CCOCC3)ncn2)CC1)N1CCC(Cc2cccnc2)CC1 | 3.3 (≈ 1.49 µg/mL) | 7 | – |
| Nc1nc(N2CCOCC2)cc(N2CCC(C(=O)N3CCC(Cc4ccccc4)CC3)CC2)n1 | 3.5 (≈ 1.63 µg/mL) | 7.3 | – |
| CC1CCN(C(=O)C2CCN(c3cc(NC4CCCC4)ncn3)CC2)CC1 | > 125 | 4.7 | – |
| O=C(C1CCN(c2cc(N3CCOCC3)ncn2)CC1)N1CCC(CC2CCCC2)CC1 | 3 (≈ 1.32 µg/mL) | 7.6 | – |
| c1nc(N2CCOCC2)cc(N2CCC3(CCCO3)CC2)n1 | – | 4.1 | – |
| CN(C)c1cc(N2CCCCC2)ncn1 | – | 3.9 | – |

| Compound | MIC90 [2] [µM] | pIC50 [3] | other results |
| --- | --- | --- | --- |
| O=C(C1CCN(c2cc(N3CCOCC3)ncn2)CC1)N1CCC(Oc2ccccc2)CC1 | 2 (≈ 0.903 µg/mL) | 8.1 | – |
| O=C(c1ccc(F)cc1)N1CCN(C(=O)C2CCN(c3cc(N4CCOCC4)ncn3)CC2)CC1 | > 80 | 4.6 | – |
| O=C(C1CCN(c2nccc(N3CCCCC3)n2)CC1)N1CCC(Cc2ccccc2)CC1 | 16 (≈ 7.16 µg/mL) | 6.8 | – |
| c1nc(N2CCCCC2)cc(N2CCCCC2)n1 | – | 4.1 | – |
| O=C(C1CCN(c2cc(N3CCOCC3)ncn2)CC1)N1CCC(Cc2ccc(F)cc2)CC1 | 0.6 (≈ 0.281 µg/mL) | 7.6 | solubility kinetic at 1 h [1]: 160 µM (≈ 74.8 µg/mL); MIC90 [4]: 15 µM (≈ 7.01 µg/mL); half-life [8]: 27 min; IC50 (HepG2): 50.1 µM; Vd [9]: 1.3 L/kg; MIC90 [6]: 0.21 µM (≈ 0.0982 µg/mL); ED99 [7]: 30 mg/kg; bioavailability [10]: 100%; solubility [11]: 40 µM (≈ 18.7 µg/mL); clearance [12]: 38.9 mL/min/kg |
| CC1(C)CCCN(c2cc(N3CCOCC3)ncn2)C1 | – | 4.6 | – |
| O=C(C1CCN(c2cc(N3CCCCC3)ncn2)CC1)N1CCCCC1 | 35.6 (≈ 12.7 µg/mL) | 5.8 | solubility kinetic at 1 h [1]: > 405 µM |
| O=C(C1CCN(c2cc(N3CCOCC3)ncn2)CC1)N1CCCCC1Cc1ccccc1 (configuration not stated) | 125 (≈ 56.2 µg/mL) | 5.4 | – |
| CC1CCN(C(=O)C2CCN(c3cc(N4CCOCC4)ncn3)CC2)CC1 | 15.6 (≈ 5.83 µg/mL) | 6 | – |
| c1nc(N2CCCCCC2)cc(N2CCOCC2)n1 | – | < 4 | – |
| O=C(C1CCN(c2cc(N3CCOCC3)ncn2)CC1)N1CCOC(Cc2ccccc2)C1 (configuration not stated) | > 125 | 5.2 | – |
| O=C(C1CCN(c2cncc(N3CCOCC3)n2)CC1)N1CCC(Cc2ccccc2)CC1 | 3 (≈ 1.35 µg/mL) | 7.4 | – |
| CC(C)N(C)c1cc(N2CCOCC2)ncn1 | – | < 4 | – |
| CCC1CCN(C(=O)C2CCN(c3cc(N4CCOCC4)ncn3)CC2)CC1 | 8 (≈ 3.1 µg/mL) | 6.8 | – |
| O=C(C1CCN(c2cc(N3CCOCC3)ncn2)CC1)N1CCC(Oc2ccc(F)cc2F)CC1 | 1 (≈ 0.488 µg/mL) | 7.5 | – |
| O=C(C1CCN(c2cc(N3CCOCC3)ncn2)CC1)N1CCC(Cc2ccccn2)CC1 | 8.8 (≈ 3.97 µg/mL) | 6.6 | – |
| O=C(C1CCN(c2cc(N3CCOCC3)ncn2)CC1)N1CCC(Oc2ccc(F)cc2)CC1 | 1.7 (≈ 0.798 µg/mL) | 7.3 | solubility kinetic at 1 h [1]: ≥ 364 µM; MIC90 [4]: 62 µM (≈ 29.1 µg/mL); half-life [8]: 60 min; IC50 (HepG2): 31.6 µM; Vd [9]: 1.7 L/kg; MIC90 [6]: 0.62 µM (≈ 0.291 µg/mL); ED99 [7]: 29 mg/kg; bioavailability [10]: 78.7%; solubility [11]: 74 µM (≈ 34.7 µg/mL); clearance [12]: 23.5 mL/min/kg |
| Cc1ccc(OC2CCN(C(=O)C3CCN(c4cc(N5CCOCC5)ncn4)CC3)CC2)nc1 | 16 (≈ 7.47 µg/mL) | 6.2 | – |
| COc1c(N2C[C@@H]3CCCN[C@@H]3C2)c(F)cc2c(=O)c(C(=O)O)cn(C3CC3)c12 [MOXIFLOXACIN] | – | – | Activity [13]: 2.7 log10CFU |
